Measurements published in paper PMC9329436, “Optimization of the 4-anilinoquin(az)oline scaffold as epidermal growth factor receptor (EGFR) inhibitors for chordoma utilizing a toxicology profiling assay platform” (Scientific Reports, 2022).
Like-named read-outs stand apart in the source and are kept apart here.

Assays:
Assay type in all cases: biochemical
[1] = target: 320 wild-type protein kinases (Homo sapiens, UniProt P12931); settings: kinase SRC (GST-HIS-tag), singlicate
From the text: (§1) Table S4. Profiling of two compounds at two concentrations against 320 wild-type protein kinases; singlicate measurement; Residual activities (% of control).

[2] = target: 320 wild-type protein kinases (Homo sapiens, UniProt P49759); settings: singlicate
Sequence of 320 wild-type protein kinases (Homo sapiens, UniProt P49759) (P49759 whole entry): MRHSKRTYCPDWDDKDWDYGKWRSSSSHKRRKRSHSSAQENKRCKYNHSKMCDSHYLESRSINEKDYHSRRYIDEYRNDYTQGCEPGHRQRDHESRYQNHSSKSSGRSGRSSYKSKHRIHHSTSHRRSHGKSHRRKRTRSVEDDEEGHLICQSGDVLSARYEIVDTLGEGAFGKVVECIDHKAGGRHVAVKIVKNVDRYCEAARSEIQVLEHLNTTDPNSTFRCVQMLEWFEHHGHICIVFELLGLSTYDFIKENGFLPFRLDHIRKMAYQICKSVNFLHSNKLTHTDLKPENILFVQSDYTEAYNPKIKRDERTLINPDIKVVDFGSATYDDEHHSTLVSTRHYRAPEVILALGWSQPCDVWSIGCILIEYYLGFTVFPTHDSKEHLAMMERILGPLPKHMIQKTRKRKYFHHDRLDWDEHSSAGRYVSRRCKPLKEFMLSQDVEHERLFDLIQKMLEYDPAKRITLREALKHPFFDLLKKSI
From the text: as §1

[3] = target: 320 wild-type protein kinases (Homo sapiens, UniProt P29597); settings: kinase TYK2, singlicate
From the text: as §1

[4] = target: 320 wild-type protein kinases (Homo sapiens, UniProt Q05397); settings: singlicate
From the text: as §1

[5] = target: 320 wild-type protein kinases (Homo sapiens, UniProt Q9HAZ1); settings: singlicate
From the text: as §1

[6] = target: T1, 320 wild-type protein kinases (Homo sapiens, UniProt O14733); settings: singlicate
T1 sequence (O14733 1-419): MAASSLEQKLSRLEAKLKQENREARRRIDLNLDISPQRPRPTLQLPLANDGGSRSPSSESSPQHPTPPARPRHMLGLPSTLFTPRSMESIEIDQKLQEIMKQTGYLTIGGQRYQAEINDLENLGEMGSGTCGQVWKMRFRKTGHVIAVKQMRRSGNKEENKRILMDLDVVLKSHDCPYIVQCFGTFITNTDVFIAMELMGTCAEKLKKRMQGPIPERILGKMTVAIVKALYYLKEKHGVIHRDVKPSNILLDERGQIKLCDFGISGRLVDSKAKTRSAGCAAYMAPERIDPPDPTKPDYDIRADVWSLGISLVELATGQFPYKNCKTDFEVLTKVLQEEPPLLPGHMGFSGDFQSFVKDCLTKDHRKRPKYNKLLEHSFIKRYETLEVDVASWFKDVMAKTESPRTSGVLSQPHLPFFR
From the text: as §1

[7] = target: 320 wild-type protein kinases (Homo sapiens, UniProt O75914); settings: singlicate
From the text: as §1

[8] = target: 320 wild-type protein kinases (Homo sapiens, UniProt Q9Y3S1); settings: kinase WNK2, singlicate
Sequence of 320 wild-type protein kinases (Homo sapiens, UniProt Q9Y3S1) (Q9Y3S1 whole entry): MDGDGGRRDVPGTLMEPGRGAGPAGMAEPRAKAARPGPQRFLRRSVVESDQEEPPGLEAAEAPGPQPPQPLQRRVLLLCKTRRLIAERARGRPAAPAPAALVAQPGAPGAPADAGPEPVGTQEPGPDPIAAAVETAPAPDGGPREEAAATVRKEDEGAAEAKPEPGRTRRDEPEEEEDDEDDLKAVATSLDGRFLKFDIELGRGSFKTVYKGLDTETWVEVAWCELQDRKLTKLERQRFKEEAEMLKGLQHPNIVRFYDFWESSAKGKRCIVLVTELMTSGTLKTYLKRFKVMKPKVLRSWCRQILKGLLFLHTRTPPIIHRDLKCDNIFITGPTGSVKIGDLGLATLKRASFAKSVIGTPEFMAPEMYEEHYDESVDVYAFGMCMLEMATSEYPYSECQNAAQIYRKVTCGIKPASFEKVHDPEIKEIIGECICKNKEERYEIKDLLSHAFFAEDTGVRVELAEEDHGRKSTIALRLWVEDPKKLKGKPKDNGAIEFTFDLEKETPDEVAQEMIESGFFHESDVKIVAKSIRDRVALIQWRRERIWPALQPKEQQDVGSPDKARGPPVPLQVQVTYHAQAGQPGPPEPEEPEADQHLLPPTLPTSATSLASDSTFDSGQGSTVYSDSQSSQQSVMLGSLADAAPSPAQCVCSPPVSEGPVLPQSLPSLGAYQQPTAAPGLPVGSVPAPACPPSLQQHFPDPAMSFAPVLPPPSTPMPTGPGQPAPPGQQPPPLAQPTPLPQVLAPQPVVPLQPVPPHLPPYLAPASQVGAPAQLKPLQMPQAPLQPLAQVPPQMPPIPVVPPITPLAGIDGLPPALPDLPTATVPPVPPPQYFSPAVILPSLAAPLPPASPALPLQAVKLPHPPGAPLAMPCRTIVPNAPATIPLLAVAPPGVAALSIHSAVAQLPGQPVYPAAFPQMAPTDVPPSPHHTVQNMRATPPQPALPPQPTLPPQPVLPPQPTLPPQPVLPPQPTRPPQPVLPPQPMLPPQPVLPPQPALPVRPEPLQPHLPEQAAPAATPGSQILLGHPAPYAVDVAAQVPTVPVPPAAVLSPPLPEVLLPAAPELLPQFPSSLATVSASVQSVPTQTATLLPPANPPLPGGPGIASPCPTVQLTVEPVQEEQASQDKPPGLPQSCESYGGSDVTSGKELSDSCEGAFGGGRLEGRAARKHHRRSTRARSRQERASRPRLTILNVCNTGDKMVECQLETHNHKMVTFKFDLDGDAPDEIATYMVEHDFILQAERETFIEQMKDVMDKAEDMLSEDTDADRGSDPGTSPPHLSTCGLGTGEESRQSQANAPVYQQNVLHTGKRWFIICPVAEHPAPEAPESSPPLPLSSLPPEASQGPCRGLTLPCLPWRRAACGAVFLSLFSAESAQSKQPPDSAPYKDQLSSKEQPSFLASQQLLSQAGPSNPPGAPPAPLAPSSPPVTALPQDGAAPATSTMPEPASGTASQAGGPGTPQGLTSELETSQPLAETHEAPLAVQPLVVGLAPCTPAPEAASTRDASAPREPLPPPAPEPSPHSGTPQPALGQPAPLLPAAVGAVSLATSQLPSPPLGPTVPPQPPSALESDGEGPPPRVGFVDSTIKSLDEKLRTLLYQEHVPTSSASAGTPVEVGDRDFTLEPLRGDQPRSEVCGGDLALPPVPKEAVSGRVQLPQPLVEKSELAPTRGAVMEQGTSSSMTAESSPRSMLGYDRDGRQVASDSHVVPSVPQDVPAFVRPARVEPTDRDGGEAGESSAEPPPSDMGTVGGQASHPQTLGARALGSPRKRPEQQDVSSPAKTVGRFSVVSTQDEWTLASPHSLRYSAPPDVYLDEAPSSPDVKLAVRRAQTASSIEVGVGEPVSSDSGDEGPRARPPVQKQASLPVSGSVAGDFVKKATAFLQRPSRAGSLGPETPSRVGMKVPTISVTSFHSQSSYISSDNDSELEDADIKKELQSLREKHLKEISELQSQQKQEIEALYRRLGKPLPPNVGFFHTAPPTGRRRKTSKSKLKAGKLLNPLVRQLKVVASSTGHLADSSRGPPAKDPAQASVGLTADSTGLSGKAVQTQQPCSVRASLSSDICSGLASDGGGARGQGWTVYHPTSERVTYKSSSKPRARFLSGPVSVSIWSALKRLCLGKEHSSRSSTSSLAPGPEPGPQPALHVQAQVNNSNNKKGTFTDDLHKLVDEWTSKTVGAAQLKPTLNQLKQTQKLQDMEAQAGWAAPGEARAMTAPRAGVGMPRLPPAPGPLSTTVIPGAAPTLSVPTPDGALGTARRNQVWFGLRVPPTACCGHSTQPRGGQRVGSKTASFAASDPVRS
From the text: as §1

[9] = target: 320 wild-type protein kinases (Homo sapiens, UniProt Q00535); settings: singlicate
Sequence of 320 wild-type protein kinases (Homo sapiens, UniProt Q00535) (Q00535 whole entry): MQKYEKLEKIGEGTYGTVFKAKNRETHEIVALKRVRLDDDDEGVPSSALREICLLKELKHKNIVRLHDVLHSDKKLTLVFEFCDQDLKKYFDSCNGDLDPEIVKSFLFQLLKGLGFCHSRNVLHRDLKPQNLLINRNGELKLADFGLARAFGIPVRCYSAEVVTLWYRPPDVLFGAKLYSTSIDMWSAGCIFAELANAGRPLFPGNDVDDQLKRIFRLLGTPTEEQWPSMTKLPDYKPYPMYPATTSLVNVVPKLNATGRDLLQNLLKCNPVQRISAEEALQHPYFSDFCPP
From the text: as §1

[10] = target: T2, 320 wild-type protein kinases (Homo sapiens, UniProt P41743); settings: PKC-iota, singlicate
T2 sequence (P41743 1-596): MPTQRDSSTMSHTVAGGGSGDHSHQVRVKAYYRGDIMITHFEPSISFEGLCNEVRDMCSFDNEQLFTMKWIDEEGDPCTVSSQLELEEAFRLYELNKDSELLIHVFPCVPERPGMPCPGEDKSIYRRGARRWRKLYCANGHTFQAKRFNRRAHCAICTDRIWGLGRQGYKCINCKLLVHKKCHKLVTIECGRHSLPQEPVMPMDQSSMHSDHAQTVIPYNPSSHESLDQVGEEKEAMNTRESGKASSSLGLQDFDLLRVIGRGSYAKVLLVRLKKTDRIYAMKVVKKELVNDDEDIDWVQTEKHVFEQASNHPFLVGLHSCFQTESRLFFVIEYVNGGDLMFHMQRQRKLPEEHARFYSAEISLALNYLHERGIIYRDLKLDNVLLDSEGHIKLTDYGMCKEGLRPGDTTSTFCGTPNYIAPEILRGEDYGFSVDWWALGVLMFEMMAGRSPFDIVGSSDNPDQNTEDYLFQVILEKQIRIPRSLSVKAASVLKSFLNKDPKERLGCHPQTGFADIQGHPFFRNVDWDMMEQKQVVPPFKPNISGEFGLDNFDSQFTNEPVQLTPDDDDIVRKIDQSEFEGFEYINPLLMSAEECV
From the text: as §1

[11] = target: 320 wild-type protein kinases (Homo sapiens, UniProt P08069); settings: IGF1-R, singlicate
Sequence of 320 wild-type protein kinases (Homo sapiens, UniProt P08069) (P08069 31-1367): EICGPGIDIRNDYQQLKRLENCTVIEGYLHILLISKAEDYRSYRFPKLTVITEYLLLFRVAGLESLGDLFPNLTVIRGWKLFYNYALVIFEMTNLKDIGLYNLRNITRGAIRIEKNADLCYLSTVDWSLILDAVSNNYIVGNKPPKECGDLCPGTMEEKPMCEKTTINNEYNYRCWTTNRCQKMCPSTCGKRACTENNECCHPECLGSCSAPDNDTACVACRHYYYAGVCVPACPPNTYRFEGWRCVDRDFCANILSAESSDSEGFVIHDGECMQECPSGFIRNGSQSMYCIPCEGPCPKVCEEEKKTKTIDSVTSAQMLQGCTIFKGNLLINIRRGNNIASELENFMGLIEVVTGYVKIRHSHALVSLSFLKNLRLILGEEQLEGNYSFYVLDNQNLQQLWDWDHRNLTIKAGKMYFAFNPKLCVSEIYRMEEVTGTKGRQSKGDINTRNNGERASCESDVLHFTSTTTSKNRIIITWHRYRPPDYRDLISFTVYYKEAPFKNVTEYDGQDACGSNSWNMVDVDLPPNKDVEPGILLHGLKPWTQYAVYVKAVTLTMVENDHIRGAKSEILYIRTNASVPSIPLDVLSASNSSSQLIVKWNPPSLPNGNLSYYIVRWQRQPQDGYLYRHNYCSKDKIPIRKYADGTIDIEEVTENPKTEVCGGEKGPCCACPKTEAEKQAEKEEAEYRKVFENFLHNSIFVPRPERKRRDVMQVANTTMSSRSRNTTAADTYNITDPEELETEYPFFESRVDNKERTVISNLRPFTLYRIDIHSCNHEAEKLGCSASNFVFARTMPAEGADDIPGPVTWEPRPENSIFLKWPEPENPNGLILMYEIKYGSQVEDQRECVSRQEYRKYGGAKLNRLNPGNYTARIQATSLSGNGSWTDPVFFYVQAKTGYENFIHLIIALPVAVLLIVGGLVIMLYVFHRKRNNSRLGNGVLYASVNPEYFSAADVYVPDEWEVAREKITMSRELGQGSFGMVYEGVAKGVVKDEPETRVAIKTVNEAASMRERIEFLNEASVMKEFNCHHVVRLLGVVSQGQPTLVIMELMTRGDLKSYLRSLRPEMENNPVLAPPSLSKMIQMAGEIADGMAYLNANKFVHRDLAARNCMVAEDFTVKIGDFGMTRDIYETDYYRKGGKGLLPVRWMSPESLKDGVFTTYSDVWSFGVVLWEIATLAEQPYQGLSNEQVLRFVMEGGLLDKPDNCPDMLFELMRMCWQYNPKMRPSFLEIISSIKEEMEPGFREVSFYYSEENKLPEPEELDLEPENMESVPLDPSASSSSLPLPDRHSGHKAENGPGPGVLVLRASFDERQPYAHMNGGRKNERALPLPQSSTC
From the text: as §1

[12] = target: T3, 320 wild-type protein kinases (Homo sapiens, UniProt P51813); settings: BMX, singlicate
T3 sequence (P51813 1-675): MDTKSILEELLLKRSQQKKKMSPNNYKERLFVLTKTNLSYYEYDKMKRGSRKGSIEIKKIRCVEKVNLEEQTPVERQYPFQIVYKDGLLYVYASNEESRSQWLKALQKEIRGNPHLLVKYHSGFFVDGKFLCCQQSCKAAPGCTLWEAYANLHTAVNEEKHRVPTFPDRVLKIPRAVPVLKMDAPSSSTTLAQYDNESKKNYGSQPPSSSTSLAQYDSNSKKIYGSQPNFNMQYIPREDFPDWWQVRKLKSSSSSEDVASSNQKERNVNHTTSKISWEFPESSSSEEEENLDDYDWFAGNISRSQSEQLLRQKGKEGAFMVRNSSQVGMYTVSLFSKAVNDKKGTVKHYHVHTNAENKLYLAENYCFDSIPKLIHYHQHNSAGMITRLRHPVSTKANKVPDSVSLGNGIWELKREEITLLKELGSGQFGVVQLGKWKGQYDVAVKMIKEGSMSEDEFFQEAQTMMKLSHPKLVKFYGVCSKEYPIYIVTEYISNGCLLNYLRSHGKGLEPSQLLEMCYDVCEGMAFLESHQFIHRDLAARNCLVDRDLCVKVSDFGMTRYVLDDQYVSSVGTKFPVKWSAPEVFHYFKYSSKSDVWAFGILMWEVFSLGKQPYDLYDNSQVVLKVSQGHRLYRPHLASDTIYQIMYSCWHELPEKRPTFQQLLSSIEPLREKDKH
From the text: as §1

[13] = target: 320 wild-type protein kinases (Homo sapiens, UniProt P17612); settings: PKA, singlicate
From the text: as §1

Sequence of 320 wild-type protein kinases (Homo sapiens, UniProt P12931) (P12931 whole entry): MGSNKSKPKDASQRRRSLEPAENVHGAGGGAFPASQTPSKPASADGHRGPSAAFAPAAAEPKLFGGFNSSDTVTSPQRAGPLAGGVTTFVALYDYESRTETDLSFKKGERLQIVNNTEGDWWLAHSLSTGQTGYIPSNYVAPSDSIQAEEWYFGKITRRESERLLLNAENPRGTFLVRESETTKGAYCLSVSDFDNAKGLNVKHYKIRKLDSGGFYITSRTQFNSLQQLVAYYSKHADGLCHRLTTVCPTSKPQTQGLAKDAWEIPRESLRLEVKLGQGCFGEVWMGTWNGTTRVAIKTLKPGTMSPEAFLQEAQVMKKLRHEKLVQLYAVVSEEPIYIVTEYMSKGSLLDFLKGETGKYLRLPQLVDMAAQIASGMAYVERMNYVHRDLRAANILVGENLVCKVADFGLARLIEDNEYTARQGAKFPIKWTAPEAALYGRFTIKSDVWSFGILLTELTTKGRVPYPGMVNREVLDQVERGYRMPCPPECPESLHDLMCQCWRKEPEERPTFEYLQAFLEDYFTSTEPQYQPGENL

| SMILES | Residual activity, SRC (GST-HIS-tag) ([1]; assay conc. 1.0E-06 M) | Residual activity, SRC (GST-HIS-tag) ([1]; assay conc. 1.0E-07 M) | Residual activity ([2]; CLK1, 1.0E-06 M) | Residual activity ([2]; CLK1, 1.0E-07 M) | Residual activity, TYK2 ([3]; assay conc. 1.0E-06 M) | Residual activity, TYK2 ([3]; assay conc. 1.0E-07 M) | Residual activity ([4]; FAK aa2-1052, 1.0E-06 M) | Residual activity ([4]; FAK aa2-1052, 1.0E-07 M) | Residual activity ([5]; CLK4, 1.0E-06 M) | Residual activity ([5]; CLK4, 1.0E-07 M) | Residual activity ([6]; MKK7, 1.0E-06 M) | Residual activity ([6]; MKK7, 1.0E-07 M) | Residual activity ([7]; PAK3, 1.0E-06 M) | Residual activity ([7]; PAK3, 1.0E-07 M) | Residual activity, WNK2 ([8]; assay conc. 1.0E-06 M) | Residual activity, WNK2 ([8]; assay conc. 1.0E-07 M) | Residual activity ([9]; CDK5/p25NCK, 1.0E-06 M) | Residual activity ([9]; CDK5/p25NCK, 1.0E-07 M) | Residual activity ([9]; CDK5/p35NCK, 1.0E-06 M) | Residual activity ([9]; CDK5/p35NCK, 1.0E-07 M) | other results |
| --- | --- | --- | --- | --- | --- | --- | --- | --- | --- | --- | --- | --- | --- | --- | --- | --- | --- | --- | --- | --- | --- |
| C#Cc1cc(Nc2ncnc3cc(I)ccc23)ccc1Cl [Compound 41] | 86 % of control | 108 % of control | 89 % of control | 89 % of control | 94 % of control | 101 % of control | 106 % of control | 138 % of control | 112 % of control | 111 % of control | 120 % of control | 86 % of control | 75 % of control | 96 % of control | 82 % of control | 108 % of control | 100 % of control | 119 % of control | 86 % of control | 87 % of control | Residual activity ([10]; 1.0E-06 M): 104 % of control; Residual activity ([10]; 1.0E-07 M): 119 % of control; Residual activity ([11]; 1.0E-06 M): 103 % of control; Residual activity ([11]; 1.0E-07 M): 109 % of control; Residual activity ([12]; 1.0E-06 M): 77 % of control; Residual activity ([12]; 1.0E-07 M): 86 % of control; Residual activity ([13]; 1.0E-06 M): 82 % of control; Residual activity ([13]; 1.0E-07 M): 88 % of control |
| C#Cc1cc(Nc2ncnc3cc(OC)c(OC)cc23)ccc1Cl [Compound 45] | 90 % of control | 100 % of control | 79 % of control | 102 % of control | 114 % of control | 96 % of control | 95 % of control | 109 % of control | 69 % of control | 100 % of control | 98 % of control | 112 % of control | 92 % of control | 98 % of control | 92 % of control | 97 % of control | 103 % of control | 98 % of control | 88 % of control | 88 % of control | Residual activity ([10]; 1.0E-06 M): 96 % of control; Residual activity ([10]; 1.0E-07 M): 139 % of control; Residual activity ([11]; 1.0E-06 M): 101 % of control; Residual activity ([11]; 1.0E-07 M): 122 % of control; Residual activity ([12]; 1.0E-06 M): 81 % of control; Residual activity ([12]; 1.0E-07 M): 92 % of control; Residual activity ([13]; 1.0E-06 M): 90 % of control; Residual activity ([13]; 1.0E-07 M): 93 % of control |
